Assay results reported in ChEMBL document CHEMBL5303573, “Mapping human microbiome drug metabolism by gut bacteria and their genes” (Nature, 2019).

Tests used:
[1] = bacteroides thetaiotaomicron, 12 h, 2 µM
Description: The drug is tested on Bacteroides thetaiotaomicron strain: 3731 for biotransformation. The drug concentrations were measured before and after a 12-h incubation by liquid-chromatography-coupled mass spectrometry (LC–MS)

[2] = The drug is tested on Eubacterium ventriosum strain: ATCC27560 for biotransformation. The drug concentrations were measured before and after a 12-h incubation by liquid-chromatography-coupled mass spectrometry (LC–MS); format: ADME; parameters: dose 2 uM, timepoint 0 vs 12 hours; conditions: 2 µM
[3] = The drug is tested on Clostridium asparagiforme strain: DSM15981 for biotransformation. The drug concentrations were measured before and after a 12-h incubation by liquid-chromatography-coupled mass spectrometry (LC–MS); format: ADME; parameters: dose 2 uM, timepoint 0 vs 12 hours; conditions: enterocloster asparagiformis, 2 µM
[4] = The drug is tested on Clostridium scindens strain: ATCC35704 for biotransformation. The drug concentrations were measured before and after a 12-h incubation by liquid-chromatography-coupled mass spectrometry (LC–MS); conditions: 2 µM
[5] = bacteroides fragilis, 12 h, 2 µM
Description: The drug is tested on Bacteroides fragilis strain: 3397 (T10) for biotransformation. The drug concentrations were measured before and after a 12-h incubation by liquid-chromatography-coupled mass spectrometry (LC–MS)

[6] = The drug is tested on Blautia luti strain: DSM14534 for biotransformation. The drug concentrations were measured before and after a 12-h incubation by liquid-chromatography-coupled mass spectrometry (LC–MS); format: ADME; parameters: dose 2 uM, timepoint 0 vs 12 hours; conditions: 2 µM
[7] = The drug is tested on Bifidobacterium breve strain: DSM20213 for biotransformation. The drug concentrations were measured before and after a 12-h incubation by liquid-chromatography-coupled mass spectrometry (LC–MS); conditions: 2 µM
[8] = The drug is tested on Bifidobacterium longum subsp. Infantis strain: CCUG52486 for biotransformation. The drug concentrations were measured before and after a 12-h incubation by liquid-chromatography-coupled mass spectrometry (LC–MS); conditions: 2 µM
[9] = roseburia intestinalis, 12 h, 2 µM
Description: The drug is tested on Roseburia intestinalis strain: L1-82 for biotransformation. The drug concentrations were measured before and after a 12-h incubation by liquid-chromatography-coupled mass spectrometry (LC–MS)

[10] = The drug is tested on Bacteroides ovatus strain: ATCC8483 for biotransformation. The drug concentrations were measured before and after a 12-h incubation by liquid-chromatography-coupled mass spectrometry (LC–MS); conditions: 2 µM
[11] = The drug is tested on Clostridium sporogenes strain: ATCC15579 for biotransformation. The drug concentrations were measured before and after a 12-h incubation by liquid-chromatography-coupled mass spectrometry (LC–MS); conditions: 2 µM
[12] = bacteroides fragilis, 12 h, 2 µM; remark: listed apart in the source
Description: The drug is tested on Bacteroides fragilis strain: NCTC 9343 for biotransformation. The drug concentrations were measured before and after a 12-h incubation by liquid-chromatography-coupled mass spectrometry (LC–MS)

[13] = The drug is tested on Ruminococcus lactaris strain: ATCC29176 for biotransformation. The drug concentrations were measured before and after a 12-h incubation by liquid-chromatography-coupled mass spectrometry (LC–MS); conditions: 2 µM
[14] = The drug is tested on Eubacterium hallii strain: DSM3353 for biotransformation. The drug concentrations were measured before and after a 12-h incubation by liquid-chromatography-coupled mass spectrometry (LC–MS); conditions: anaerobutyricum hallii, 2 µM
[15] = The drug is tested on Bacteroides dorei strain: DSM17855 for biotransformation. The drug concentrations were measured before and after a 12-h incubation by liquid-chromatography-coupled mass spectrometry (LC–MS); conditions: phocaeicola dorei, 2 µM
[16] = The drug is tested on Clostridium sp. strain: fecal isolate for biotransformation. The drug concentrations were measured before and after a 12-h incubation by liquid-chromatography-coupled mass spectrometry (LC–MS); conditions: 2 µM
[17] = The drug is tested on Bifidobacterium ruminantium strain: fecal isolate for biotransformation. The drug concentrations were measured before and after a 12-h incubation by liquid-chromatography-coupled mass spectrometry (LC–MS); conditions: 2 µM
[18] = The drug is tested on Collinsella aerofaciens strain: ATCC25986 for biotransformation. The drug concentrations were measured before and after a 12-h incubation by liquid-chromatography-coupled mass spectrometry (LC–MS); conditions: 2 µM
[19] = bifidobacterium adolescentis, 12 h, 2 µM
Description: The drug is tested on Bifidobacterium adolescentis strain: ATCC 15703 for biotransformation. The drug concentrations were measured before and after a 12-h incubation by liquid-chromatography-coupled mass spectrometry (LC–MS)

[20] = The drug is tested on Ruminococcus torques strain: ATCC27756 for biotransformation. The drug concentrations were measured before and after a 12-h incubation by liquid-chromatography-coupled mass spectrometry (LC–MS); format: ADME; parameters: dose 2 uM, timepoint 0 vs 12 hours; conditions: 2 µM

Measured: Bacterial Biotransformation

COc1ccc(C(CN(C)C)C2(O)CCCCC2)cc1 (stereo not given) [VENLAFAXINE]
Compound NOT metabolized: all assays above
